In patent US20250009742A1 (priority 2021, published 2025):

Legend:
[1] = Cell viability assay (EZ-Cytox), cytotoxicity; format: cell-based; conditions: human, HepAD38 cells; for viability at 65 h, 100 µM: read-out: Cytotoxicity % Livability (@100 μM)
Experimental: HepAD38 cells were cultured for 2 days in Dulbecco's Modified Eagle's medium (Welgene, LM001-05) supplemented with 10% FBS without tetracycline. […] After 65 hours of treatment, viability was measured using EZ-Cytox cell viability assay kit (Daeil Lab Service) according to the manufacturer's instructions. The absorbance was measured at 450 nm using a spectrophotometer (Spark, Tecan).

intracellular HBV DNA = experiment: Real-time PCR for intracellular HBV DNA in HepAD38 cells; format: cell-based; conditions: Hepatitis B virus, HePAD38, 65 h, 65 hours treatment

**Q.** With COc1ccc(N(Cc2nn(C)c3c2COCC3)C(=O)Nc2ccc(F)c(Cl)c2)cc1 [Example 39, 3-(3-chloro-4-fluorophenyl)-1-(4-methoxyphenyl)-1-((1-methyl-1,4,6,7-tetrahydropyrano[4,3-c]pyrazol-3-yl)methyl)urea] as the molecule, how does the CC50 at 65 h [1] read?
**A.** > 100000 nM

**Q.** And the viability at 65 h, 100 µM [1]?
**A.** 96%

**Q.** And the IC50 (intracellular HBV DNA)?
**A.** 330 nM

**Q.** Which CC50 at 65 h [1] does the source give for COc1ccc(N(Cc2cc(C(F)F)[nH]n2)C(=O)Nc2ccc(F)c(Cl)c2)nn1 [Example 97, 3-(3-chloro-4-fluorophenyl)-1-((5-(difluoromethyl)-1H-pyrazol-3-yl)methyl)-1-(6-methoxypyridazin-3-yl)urea] here?
**A.** > 100000 nM

**Q.** What about the viability at 65 h, 100 µM [1] of the same molecule?
**A.** 86.2%

**Q.** What about the IC50 (intracellular HBV DNA) of the same molecule?
**A.** > 1100 nM

**Q.** What does the source list for COc1ncc(N(Cc2cc(C(F)(F)F)[nH]n2)C(=O)Nc2cc(F)c(F)cn2)cn1 [Example 172, 3-(4,5-difluoropyridin-2-yl)-1-(2-methoxypyrimidin-5-yl)-1-((5-(trifluoromethyl)-1H-pyrazol-3-yl)methyl)urea]?
**A.** CC50 at 65 h [1]: > 100000 nM; IC50 (intracellular HBV DNA): 240 nM

**Q.** For CCOCCc1c(CN(C(=O)Nc2ccc(F)cc2)c2ccc(OC)nc2)n[nH]c1C(F)(F)F [Example 182, 1-((4-(2-ethoxyethyl)-5-(trifluoromethyl)-1H-pyrazol-3-yl)methyl)-3-(4-fluorophenyl)-1-(6-methoxypyridin-3-yl)urea], which CC50 at 65 h [1] is on record?
**A.** > 100000 nM

**Q.** What about the viability at 65 h, 100 µM [1] of the same molecule?
**A.** 104%

**Q.** What about the IC50 (intracellular HBV DNA) of the same molecule?
**A.** > 1100 nM

**Q.** Which CC50 at 65 h [1] does the source give for COc1ncc(N(Cc2n[nH]c(C(F)(F)F)c2C(C)(C)O)C(=O)Nc2ccc(F)c(Cl)c2)cn1 [Example 102, 3-(3-chloro-4-fluorophenyl)-1-((4-(2-hydroxypropan-2-yl)-5-(trifluoromethyl)-1H-pyrazol-3-yl)methyl)-1-(2-methoxypyrimidin-5-yl)urea] here?
**A.** > 66000 nM

**Q.** And the viability at 65 h, 100 µM [1]?
**A.** 3.8%

**Q.** What about the IC50 (intracellular HBV DNA) of the same molecule?
**A.** > 1100 nM

**Q.** Which results are given for COc1ncc(N(Cc2cc(C(F)(F)F)[nH]n2)C(=O)Nc2ccc(C#N)c(F)c2)cn1 [Example 156, 3-(4-cyano-3-fluorophenyl)-1-(2-methoxypyrimidin-5-yl)-1-((5-(trifluoromethyl)-1H-pyrazol-3-yl)methyl)urea]?
**A.** CC50 at 65 h [1]: > 100000 nM; viability at 65 h, 100 µM [1]: 107%; IC50 (intracellular HBV DNA): 83 nM

**Q.** What does the source list for COc1ccc(N(Cc2n[nH]c3c2COCC3)C(=O)Nc2ccc(F)c(Cl)c2)cn1 [Example 55, 3-(3-chloro-4-fluorophenyl)-1-(6-methoxypyridin-3-yl)-1-((1,4,6,7-tetrahydropyrano[4,3-c]pyrazol-3-yl)methyl)urea]?
**A.** CC50 at 65 h [1]: > 100000 nM; viability at 65 h, 100 µM [1]: 102%; IC50 (intracellular HBV DNA): 17 nM

**Q.** With COc1ncc(N(Cc2cc(C(F)(F)F)[nH]n2)C(=O)Nc2cc(Cl)c(F)cn2)cn1 [Example 89, 3-(4-chloro-5-fluoropyridin-2-yl)-1-(2-methoxypyrimidin-5-yl)-1-((5-(trifluoromethyl)-1H-pyrazol-3-yl)methyl)urea] as the molecule, how does the CC50 at 65 h [1] read?
**A.** > 100000 nM

**Q.** What about the viability at 65 h, 100 µM [1] of the same molecule?
**A.** 96%

**Q.** And the IC50 (intracellular HBV DNA)?
**A.** 50 nM

**Q.** With COc1ncc(N(Cc2n[nH]c(C(F)(F)F)c2CCO)C(=O)Nc2ccc(F)c(C(F)F)c2)cn1 [Example 193, 3-(3-(difluoromethyl)-4-fluorophenyl)-1-((4-(2-hydroxyethyl)-5-(trifluoromethyl)-1H-pyrazol-3-yl)methyl)-1-(2-methoxypyrimidin-5-yl)urea] as the molecule, how does the CC50 at 65 h [1] read?
**A.** > 100000 nM

**Q.** And the IC50 (intracellular HBV DNA)?
**A.** 180 nM

**Q.** For COc1ncc(N(Cc2cc(C#N)[nH]n2)C(=O)Nc2ccc(F)c(C(F)(F)F)c2)cn1 [Example 215, 1-((5-cyano-1H-pyrazol-3-yl)methyl)-3-(4-fluoro-3-(trifluoromethyl)phenyl)-1-(2-methoxypyrimidin-5-yl)urea], which CC50 at 65 h [1] is on record?
**A.** > 100000 nM

**Q.** And the viability at 65 h, 100 µM [1]?
**A.** 67%

**Q.** And the IC50 (intracellular HBV DNA)?
**A.** 20 nM

**Q.** Which results are given for COc1cc(N(Cc2cc(C(F)(F)F)[nH]n2)C(=O)Nc2ccc(F)c(Cl)c2)cnn1 [Example 94, 3-(3-chloro-4-fluorophenyl)-1-(6-methoxypyridazin-4-yl)-1-((5-(trifluoromethyl)-1H-pyrazol-3-yl)methyl)urea]?
**A.** CC50 at 65 h [1]: 64400 nM; viability at 65 h, 100 µM [1]: 4.8%; IC50 (intracellular HBV DNA): 260 nM
